Reference: patent publication US20250197372A1 (priority 2020, published 2025)

How the values were obtained:
Assay type in all cases: biochemical
[1] = target: T1, recombinant alpha-glucosidase II (murine full-length glucosidase II, alpha and beta subunits, Glu 2) (Mus musculus, UniProt Q8BHN3); test: Alpha-glucosidase II assay (4-methylumbelliferyl-alpha-D-pyranoside substrate, fluorescence); conditions: Glucosidase 2; read-out: Glu2 IC50
T1 construct: made in house; host or cells: HEK-293T cells transduced with BacMam viruses (75% alpha, 25% beta); protein harvested from culture supernatant

[2] = target: recombinant human GAA (acid alpha-glucosidase) (Homo sapiens, UniProt P10253); test: Acid alpha-glucosidase (GAA) assay (4-methylumbelliferyl-alpha-D-pyranoside substrate, fluorescence)
In short: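 IC50 from 4-PL curve fit of percent inhibition, based on fluorescence (365/440 nm) of released methylumbelliferone relative to uninhibited enzyme. Compound dilutions and human GAA incubated 60 min, 37 °C, before 20 min substrate reaction at 37 °C, quenched at pH 10.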

[3] = target: rat maltase (partially purified alpha-glucosidase from intestinal rat powder); test: Intestinal alpha-glucosidase assay, maltose substrate (Glucose GO Kit)
In short: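 Partially purified alpha-glucosidase from rat intestinal powder was preincubated 60 min at 37 °C with serial compound dilutions, then given maltose or sucrose and incubated 30 min at 37 °C.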

[4] = target: rat sucrase (partially purified alpha-glucosidase from intestinal rat powder) (Rattus norvegicus, UniProt P23739); test: Intestinal alpha-glucosidase assay, sucrose substrate (Glucose GO Kit)
In short: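 First step: 60 min, 37 °C, compound with partially purified rat intestinal alpha-glucosidase. Next, maltose or sucrose for 30 min at 37 °C, ended at 90 °C for 5 min. Glucose quantified enzymatically; concentration–inhibition data fitted 4-PL for IC50.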

Chain of rat sucrase (partially purified alpha-glucosidase from intestinal rat powder) (P23739 whole entry): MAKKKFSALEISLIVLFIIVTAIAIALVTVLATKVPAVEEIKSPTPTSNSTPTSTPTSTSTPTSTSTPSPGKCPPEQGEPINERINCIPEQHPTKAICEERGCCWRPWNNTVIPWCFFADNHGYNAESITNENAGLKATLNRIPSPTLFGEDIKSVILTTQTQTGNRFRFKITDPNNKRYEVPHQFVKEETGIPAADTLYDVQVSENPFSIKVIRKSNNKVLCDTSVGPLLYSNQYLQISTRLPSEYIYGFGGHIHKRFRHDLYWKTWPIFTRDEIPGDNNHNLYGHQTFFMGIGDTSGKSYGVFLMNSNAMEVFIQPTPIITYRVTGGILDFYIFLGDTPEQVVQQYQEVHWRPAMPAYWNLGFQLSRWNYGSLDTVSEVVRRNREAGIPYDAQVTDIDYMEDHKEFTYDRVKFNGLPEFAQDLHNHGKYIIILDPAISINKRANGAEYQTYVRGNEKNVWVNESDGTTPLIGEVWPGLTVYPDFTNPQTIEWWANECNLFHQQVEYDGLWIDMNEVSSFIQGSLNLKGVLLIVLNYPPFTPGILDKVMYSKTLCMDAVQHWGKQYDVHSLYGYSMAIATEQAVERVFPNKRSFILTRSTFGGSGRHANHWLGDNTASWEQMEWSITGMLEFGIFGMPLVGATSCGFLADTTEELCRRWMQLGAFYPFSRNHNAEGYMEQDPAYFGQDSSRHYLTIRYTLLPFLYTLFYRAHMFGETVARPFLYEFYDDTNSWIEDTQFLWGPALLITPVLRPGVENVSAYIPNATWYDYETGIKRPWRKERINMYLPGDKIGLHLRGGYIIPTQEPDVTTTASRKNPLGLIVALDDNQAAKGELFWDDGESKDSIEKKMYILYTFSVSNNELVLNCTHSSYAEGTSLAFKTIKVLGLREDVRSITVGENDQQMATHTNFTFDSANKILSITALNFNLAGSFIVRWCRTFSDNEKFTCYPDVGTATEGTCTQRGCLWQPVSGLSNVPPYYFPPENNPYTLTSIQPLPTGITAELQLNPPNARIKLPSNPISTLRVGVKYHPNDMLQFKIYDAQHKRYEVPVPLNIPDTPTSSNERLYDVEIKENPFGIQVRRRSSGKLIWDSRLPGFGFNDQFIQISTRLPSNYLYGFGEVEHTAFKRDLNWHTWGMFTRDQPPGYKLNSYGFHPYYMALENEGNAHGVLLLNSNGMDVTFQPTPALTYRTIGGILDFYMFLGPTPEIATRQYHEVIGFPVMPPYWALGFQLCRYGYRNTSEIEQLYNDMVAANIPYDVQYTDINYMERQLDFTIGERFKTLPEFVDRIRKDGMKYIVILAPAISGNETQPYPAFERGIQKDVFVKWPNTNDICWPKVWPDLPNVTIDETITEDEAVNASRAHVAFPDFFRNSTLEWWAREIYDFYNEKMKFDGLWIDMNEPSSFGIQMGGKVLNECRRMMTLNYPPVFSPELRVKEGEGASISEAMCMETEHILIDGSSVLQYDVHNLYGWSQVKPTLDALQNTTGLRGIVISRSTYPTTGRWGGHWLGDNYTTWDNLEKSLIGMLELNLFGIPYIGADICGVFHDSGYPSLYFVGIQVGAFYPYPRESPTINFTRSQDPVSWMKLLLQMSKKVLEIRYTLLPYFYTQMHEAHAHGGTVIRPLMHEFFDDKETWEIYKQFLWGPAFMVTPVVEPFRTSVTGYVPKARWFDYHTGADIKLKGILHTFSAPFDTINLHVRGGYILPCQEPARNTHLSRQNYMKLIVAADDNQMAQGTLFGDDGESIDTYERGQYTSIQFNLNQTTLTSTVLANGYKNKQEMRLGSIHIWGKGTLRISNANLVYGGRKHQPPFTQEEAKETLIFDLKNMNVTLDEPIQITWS
T1 sequence (O08795 15-521): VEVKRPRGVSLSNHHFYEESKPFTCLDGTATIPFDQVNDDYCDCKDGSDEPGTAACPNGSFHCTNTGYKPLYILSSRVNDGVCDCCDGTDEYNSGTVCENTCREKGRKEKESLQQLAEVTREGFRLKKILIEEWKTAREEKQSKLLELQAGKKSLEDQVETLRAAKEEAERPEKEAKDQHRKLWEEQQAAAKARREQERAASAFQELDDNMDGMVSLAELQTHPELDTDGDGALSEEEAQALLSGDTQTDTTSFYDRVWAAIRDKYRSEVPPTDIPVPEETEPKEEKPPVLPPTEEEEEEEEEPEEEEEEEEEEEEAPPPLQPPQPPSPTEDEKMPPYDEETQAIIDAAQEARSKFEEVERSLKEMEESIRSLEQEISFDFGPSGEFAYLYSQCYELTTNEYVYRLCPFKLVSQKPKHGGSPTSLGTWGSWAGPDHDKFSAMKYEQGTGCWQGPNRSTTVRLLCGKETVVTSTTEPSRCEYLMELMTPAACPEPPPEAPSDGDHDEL
T1 sequence (Q8BHN3 33-944): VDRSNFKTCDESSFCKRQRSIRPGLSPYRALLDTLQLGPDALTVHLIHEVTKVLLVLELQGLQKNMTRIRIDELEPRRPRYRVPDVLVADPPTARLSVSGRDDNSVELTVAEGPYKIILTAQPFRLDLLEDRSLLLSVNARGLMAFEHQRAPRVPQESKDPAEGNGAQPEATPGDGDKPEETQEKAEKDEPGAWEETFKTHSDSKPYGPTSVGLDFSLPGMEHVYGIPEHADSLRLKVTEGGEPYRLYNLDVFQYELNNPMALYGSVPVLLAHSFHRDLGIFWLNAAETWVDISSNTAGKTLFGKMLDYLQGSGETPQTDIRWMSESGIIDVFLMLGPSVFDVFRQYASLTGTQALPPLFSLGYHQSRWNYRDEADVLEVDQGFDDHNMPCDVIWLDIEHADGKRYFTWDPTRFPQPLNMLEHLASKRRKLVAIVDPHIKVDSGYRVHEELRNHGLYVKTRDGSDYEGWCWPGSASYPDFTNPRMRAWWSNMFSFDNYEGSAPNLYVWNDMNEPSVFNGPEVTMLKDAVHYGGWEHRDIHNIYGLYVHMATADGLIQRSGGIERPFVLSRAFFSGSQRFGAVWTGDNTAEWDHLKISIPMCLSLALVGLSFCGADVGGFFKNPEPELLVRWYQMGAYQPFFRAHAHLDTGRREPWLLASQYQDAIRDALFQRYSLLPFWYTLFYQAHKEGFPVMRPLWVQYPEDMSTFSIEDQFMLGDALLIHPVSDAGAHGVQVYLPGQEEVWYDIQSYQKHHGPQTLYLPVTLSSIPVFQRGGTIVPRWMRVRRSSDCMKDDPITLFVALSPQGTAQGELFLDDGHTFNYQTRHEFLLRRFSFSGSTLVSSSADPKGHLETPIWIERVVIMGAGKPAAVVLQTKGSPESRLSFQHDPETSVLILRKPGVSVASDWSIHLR

Row | SMILES | IC50 [1] | IC50 [2] | IC50 [3] | IC50 [4]
1 | O=[N+]([O-])c1cc(Br)ccc1NCc1ccc(CN2C[C@H](O)[C@@H](O)[C@H](O)[C@H]2CO)cc1 [Compound 1030, (2R,3R,4R,5S)-1-[(4-{[(4-bromo-2-nitrophenyl)amino]methyl}phenyl)methyl]-2-(hydroxymethyl)piperidine-3,4,5-triol] | < 1 nM | 135 nM | < 1 nM | < 1 nM
2 | [N-]=[N+]=Nc1ccc(NCCNS(=O)(=O)NCCN2C[C@H](O)[C@@H](O)[C@H](O)[C@H]2CO)c([N+](=O)[O-])c1 [Compound 1275, (2R,3R,4R,5S)-1-{2-[({2-[(4-azido-2-nitrophenyl)amino]ethyl}sulfamoyl)amino]ethyl}-2-(hydroxymethyl)piperidine-3,4,5-triol] | 366 nM | 556 nM | 288 nM | 413 nM
3 | OC[C@@H]1[C@@H](O)[C@H](O)[C@@H](O)CN1CCCCCCNc1cc(Cl)cc(-c2ncccn2)c1 [Compound 1212, (2R,3R,4R,5S)-1-(6-{[3-chloro-5-(pyrimidin-2-yl)phenyl]amino}hexyl)-2-(hydroxymethyl)piperidine-3,4,5-triol] | 5 nM | 47 nM | 2 nM | 89 nM
4 | COc1cc(NCCCCCCN2C[C@H](O)[C@@H](O)[C@H](O)[C@H]2CO)cc(-c2ncco2)c1 [Compound 1216, (2R,3R,4R,5S)-2-(hydroxymethyl)-1-(6-{[3-methoxy-5-(1,3-oxazol-2-yl)phenyl]amino}hexyl)piperidine-3,4,5-triol] | 2 nM | 37 nM | 8 nM | 796 nM
5 | Cc1cc(NCc2ccc(CN3C[C@H](O)[C@@H](O)[C@H](O)[C@H]3CO)cc2)cc(-c2ccco2)c1 [Compound 1317, (2R,3R,4R,5S)-1-{[4-({[3-(furan-2-yl)-5-methylphenyl]amino}methyl)phenyl]methyl}-2-(hydroxymethyl)piperidine-3,4,5-triol] | 1200 nM | 480 nM | < 1 nM | < 1 nM
6 | [N-]=[N+]=Nc1ccc(N2CCN(CCN3C[C@H](O)[C@@H](O)[C@H](O)[C@H]3CO)CC2)c([N+](=O)[O-])c1 [Compound 1254, (2R,3R,4R,5S)-1-{2-[4-(4-azido-2-nitrophenyl)piperazin-1-yl]ethyl}-2-(hydroxymethyl)piperidine-3,4,5-triol] | 865 nM | > 100000 nM | 1210 nM | 6530 nM
7 | N#Cc1ccc(NCCCCCCN2C[C@H](O)[C@@H](O)[C@H](O)[C@H]2CO)c([N+](=O)[O-])c1 [Compound 1304, 3-nitro-4-({6-[(2R,3R,4R,5S)-3,4,5-trihydroxy-2-(hydroxymethyl)piperidin-1-yl]hexyl}amino)benzonitrile] | 22 nM | 43 nM | 17 nM | 60 nM
8 | N#Cc1cc(NCc2cccc(CN3C[C@H](O)[C@@H](O)[C@H](O)[C@H]3CO)c2)cc(N2CCOCC2)c1 [Compound 1042, 3-(morpholin-4-yl)-5-{[(3-{[(2R,3R,4R,5S)-3,4,5-trihydroxy-2-(hydroxymethyl)piperidin-1-yl]methyl}phenyl)methyl]amino}benzonitrile] | 8680 nM | 1830 nM | 29 nM | 163 nM
9 | [N-]=[N+]=Nc1ccc(N2CC(OCCN3C[C@H](O)[C@@H](O)[C@H](O)[C@H]3CO)C2)c([N+](=O)[O-])c1 [Compound 1252, (2R,3R,4R,5S)-1-(2-{[1-(4-azido-2-nitrophenyl)azetidin-3-yl]oxy}ethyl)-2-(hydroxymethyl)piperidine-3,4,5-triol] | 82 nM | 141 nM | 37 nM | 80 nM
10 | OC[C@@H]1[C@@H](O)[C@H](O)[C@@H](O)CN1Cc1cccc(CNc2cc(-c3ncccn3)cc(C3CC3)c2)n1 [Compound 1333, (2R,3R,4R,5S)-1-{[6-({[3-cyclopropyl-5-(pyrimidin-2-yl)phenyl]amino}methyl)pyridin-2-yl]methyl}-2-(hydroxymethyl)piperidine-3,4,5-triol] | > 100000 nM | 2180 nM | 846 nM | 1590 nM
11 | NC(=O)c1cc(-c2ncccn2)ccc1NCCCCCCN1C[C@H](O)[C@@H](O)[C@H](O)[C@H]1CO [Compound 1266, 5-(pyrimidin-2-yl)-2-({6-[(2R,3R,4R,5S)-3,4,5-trihydroxy-2-(hydroxymethyl)piperidin-1-yl]hexyl}amino)benzamide] | 7 nM | 103 nM | 2 nM | 140 nM
12 | O=S(=O)(Nc1cc(-c2ncccn2)ccc1NCCCCCCN1C[C@H](O)[C@@H](O)[C@H](O)[C@H]1CO)C1CC1 [Compound 1227, N-[5-(pyrimidin-2-yl)-2-({6-[(2R,3R,4R,5S)-3,4,5-trihydroxy-2-(hydroxy-methyl)piperidin-1-yl]hexyl}amino)phenyl]cyclopropanesulfonamide] | 17 nM | 82 nM | 12 nM | 104 nM
